Laboratory results reported in patent US20090081285A1, “USE OF RADICAL-CAPTURING SUBSTANCES IN A TOPICAL PREPARATION FOR ANTIPYRETIC TREATMENT” (priority 2005, published 2009).
Read-outs that look alike come from different tables or passages of the source.

Key:
[1] = Radical protection factor (RPF) by electron spin resonance (ESR); type: physicochemical; conditions: in vitro
Text: wherein RF=(S1−S2)/S1; RC=concentration of test substance (radicals/ml); PI=concentration of active substance preparation (mg/ml); S2=signal amplitude of a solution of antioxidant. The radical protection factor is preferably 800×10^14 radicals per mg of preparation, more preferably 30,000×10^14 radicals per mg of preparation.
The radical protection factor (RPF) indicates the activity in binding free radicals by an antioxidant or radical scavenger compared to a test substance.
As set forth above, the radical protection factor (RPF) determines the activity of a substance for binding free radicals as compared with a test substance. The test substance consists of a highly reactive, semi-stable radical which reacts with all known antioxidants. Such radicals include nitroxides such as Proxo (2,2,5,5-tetramethyl-1-dihydropyrrolinoxy nitroxide), Tempol (2,2,6,6-tetramethyl-1-piperidinoxy-4-ol nitroxide), DTBN (di-tert-butyl-nitroxide) or preferably DPPH (1,1-diphenyl-2-picryl-hydrazyl).
The RPF is measured in such a way that the signal amplitude of the test radical is measured by electron spin resonance (ESR/EPR) before and after mixing with an antioxidant/radical scavenger and calculating the RPF therefrom. For a series of standard antioxidants the RPF is well-known.
Ind. […] Starting from the known concentration of test substance (here: DPPH) or the number of its free radicals (radicals per ml), a signal amplitude S1 is measured using an ESR spectrometer. Both test radical and antioxidant are dissolved in a water/alcohol solution (e.g. 0.1 M). Thereafter, the signal amplitude S2 of the antioxidant is measured. The normalized difference between the two signal amplitudes is the reduction factor RF.
The result of the radical reduction of the test substance RC×RF is normalized relative to the quantity of product input PI (mg/ml). RC is the amount of the test substance, i.e., the known number of radicals in the test substance. The radical protection factor is calculated by means of the following equation:
RPF=N×10^14[radicals per mg],
wherein N is a positive real number and RPF for simplification may be reduced to the numerical value of N. This reduction will be used in the examples of the present invention.
The radical protection factor can be determined using an ESR spectrometer (GALENUS GmbH, Berlin, Germany) and is a magnitude for characterizing products with respect to their capability of binding free radicals. The method is an in vitro method in which no individual properties of the user would influence the antioxidants.

[2] = standard antioxidants, RPF stated as well-known; cited from earlier work
[3] = radical scavenger raw materials

Compound | radical protection factor (RPF) [1, 3] | radical protection factor (RPF) [2] | also measured
O=C(OC[C@H]1O[C@@H](OC(=O)c2cc(O)c(O)c(OC(=O)c3cc(O)c(O)c(O)c3)c2)[C@H](OC(=O)c2cc(O)c(O)c(OC(=O)c3cc(O)c(O)c(O)c3)c2)[C@@H](OC(=O)c2cc(O)c(O)c(OC(=O)c3cc(O)c(O)c(O)c3)c2)[C@@H]1OC(=O)c1cc(O)c(O)c(OC(=O)c2cc(O)c(O)c(O)c2)c1)c1cc(O)c(O)c(OC(=O)c2cc(O)c(O)c(O)c2)c1 [tannic acid] | 310,000 ×10^14 radicals/mg | – | –
Cc1c(C)c2c(c(C)c1O)CCC(C)(CCCC(C)CCCC(C)CCCC(C)C)O2 (racemic) [DL-α-tocopherol] | – | 41,200 ×10^14 radicals/mg | –
CC(=O)OC/C=C(C)/C=C/C=C(C)/C=C/C1=C(C)CCCC1(C)C [all-trans-retinol acetate] | – | 196 ×10^14 radicals/mg | –
O=C(/C=C/c1ccc(O)c(O)c1)O[C@H](Cc1ccc(O)c(O)c1)C(=O)O [rosmarinic acid] | 36,000-68,000 ×10^14 radicals/mg | – | –
O=C1O[C@H]([C@@H](O)CO)C([O-])=C1OP(=O)([O-])[O-].[Na+].[Na+].[Na+] [sodium ascorbyl phosphate] | 35,000 ×10^14 radicals/mg | – | –
CC1=C(/C=C/C(C)=C/C=C/C(C)=C/CO)C(C)(C)CCC1 [all-trans-retinol] | – | 827 ×10^14 radicals/mg | –
CC(=O)Oc1c(C)c(C)c2c(c1C)CCC(C)(CCC[C@H](C)CCC[C@H](C)CCCC(C)C)O2 (stereo partly drawn) [α-tocopheryl acetate] | – | about 48 ×10^14 radicals/mg | –
cyclodextrins | – | – | radical protection factor (RPF) ([1]; printed without unit (b55-56: RPF=N×10^14 radicals per mg, reduced to N)): 0
